Test system: not listed separately
Assay: Polarity: interfacial tension toward water;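 note: polarity expressed as oil–water interfacial tension in mN/m, lower values meaning a more polar oil, with medium-polar lipids falling between 20 and 30 mN/m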
Type: physicochemical
Conditions: medium-polar lipids
From the text: For the purposes of the present invention, lipids are regarded as being polar if their interfacial tension toward water is less than 20 mN/m, and as nonpolar if their interfacial tension toward water is more than 30 mN/m. Lipids with an interfacial tension toward water between 20 and 30 mN/m are generally referred to as medium-polar.

| Compound | Polarity |
| --- | --- |
| CCCCCCC(CCCC)C(=O)O (stereo not drawn) [Isocarb 12, Butyl Octanoic acid] | 22.1 mN/m |
| CCCCCCCCCCCCCCCC(=O)OCCCCCCCC [Cegesoft C24, Octyl Palmitate] | 23.1 mN/m |
| CC(C)CCCCCCCOC(=O)CC(C)CC(C)(C)C (stereo not drawn) [Dermol 109, Isodecyl 3,5,5 Trimethyl Hexanoate] | 29.1 mN/m |
| CCCCCCCCCCC(CO)CCCCCCCC (stereo not drawn) [Eutanol G, Octyldodecanol] | 24.8 mN/m |
| CCCCCCOCCCCCC [Dihexyl Ether] | 29.2 mN/m |
| CCCCCCCCCC(=O)OCCCC(C)C [Dermol IHD, Isohexyl decanoate] | 29.7 mN/m |
| CC(C)CCCCCCCOC(=O)C(C)(C)C [DUB VCI 10, Isodecyl Neopentanoate] | 29.9 mN/m |
| CCCCCCCCCCCCCCCCCC(=O)OC(C)C [Isopropyl stearate, Isopropyl Stearate] | 21.9 mN/m |
| CCCCCCCC(=O)OCC(COC(=O)CCCCCCC)OC(=O)CCCCCCC [Trivent OCG, Tricaprylin] | 20.2 mN/m |
| CCCCCCCCCCCCCC(=O)OCC(CCCCCCCC)CCCCCCCCCC (stereo not drawn) [M.O.D., Octyldodecyl Myristate] | 22.1 mN/m |
| CCCCCCCC(=O)OCCCCCCCC(C)C [Dermol 108, Isodecyl Octanoate] | 29.6 mN/m |
| Isotridecyl 3,5,5 Trimethylhexanonanoate [Dermol 139] | 24.5 mN/m |
| CCCCC(CC)C(=O)OCCC(C)CC(C)(C)C (stereo not drawn) [Dermol 98, 2-Ethylhexanoic acid 3,5,5-Trimethyl ester] | 26.2 mN/m |

Same assay, conditions: nonpolar lipids

| Compound | Polarity |
| --- | --- |
| CC(CCOC(=O)CC(C)CC(C)(C)C)CC(C)(C)C (stereo not drawn) [Dermol 99, Trimethylhexyl Isononanoate] | 31.1 mN/m |
| CCCCCCOC(=O)OCCCCCC [Dihexyl carbonate, Dihexyl Carbonate] | 30.9 mN/m |
| CCCCCCCCCCCCCCCCCC(C)C [Isoeicosane] | 41.9 mN/m |
| Dioctylcyclohexane [Cetiol S] | 39.0 mN/m |
| O1[SiH2]O[SiH2]O[SiH2]O[SiH2]O[SiH2]1 (stereo not drawn) [Dow Corning Fluid 245, Cyclopentasiloxane] | 32.3 mN/m |
| CCCCCCCC/C=C\CCCCCCCC(=O)OCCOCCOCC [Softcutol O, Ethoxydiglycol Oleate] | 40.5 mN/m |
| CCCCCCCCCCCCCC(C)C [Solvent ICH, Isohexadecane] | 43.8 mN/m |
| Isocetyl Palmitate [Tegosoft HP] | 36.2 mN/m |
| CCCCCCCC(=O)OC(=O)CCCCCCC [Cetiol OE, Dicaprylyl Ether] | 30.9 mN/m |
| CCCCC(CC)COC(=O)CCCCCC(C)C (stereo not drawn) [Dermol 89, 2-Ethylhexyl Isononanoate] | 31.0 mN/m |
| CCCCCCCCOC(=O)CCCCCCCCCCCCCCC(C)C [Prisorine 2036, Octyl Isostearate] | 31.6 mN/m |

Same assay, conditions: polar lipids

| Compound | Polarity |
| --- | --- |
| CCCCCCCCCCCCCCCCCCOC(=O)CCCCCC [Tegosoft SH, Stearyl Heptanoate] | 17.8 mN/m |
| CC(C)CCCCCCCCCCCCCCC(=O)O.CC(O)CO [Emerest 2384, Propylene Glycol Monoisostearate] | 6.2 mN/m |
| CCCCOC(=O)CCCCC(=O)OCCCC [Cetiol B, Dibutyl Adipate] | 14.3 mN/m |
| PEG 2 Diethylene hexanoate [Dermol 488] | 10.1 mN/m |
| Triisostearin [Prisorine 2041 GTIS] | 2.4 mN/m |

Same assay, conditions: silicone oils

| Compound | Polarity |
| --- | --- |
| O1[SiH2]O[SiH2]O[SiH2]O[SiH2]O[SiH2]1 (stereo not drawn) [Dow Corning Fluid 245, Cyclopentasiloxane] | 32.3 mN/m |

Test system: insects
Assay: not given
Conditions: cited from earlier work

| Compound | effective against (pests repelled) |
| --- | --- |
| COC(=O)c1ccccc1C(=O)OC [Dimethyl phthalate] | mosquitoes (in particular Aedes and Anopheles species) |
| CCN(CC)C(=O)c1cccc(C)c1 [DEET, N,N-diethyl-3-methylbenzamide] | mosquitoes, horse-flies, sand-flies, ticks, biting flies, mites, fleas and bugs |
| CCCCN(CCC(=O)OCC)C(C)=O [Repellent 3535, ethyl 3-(N-n-butyl-N-acetylamino)propionate] | mosquitoes (Aedes aegypti, Anopheles albimanus), tsetse flies (Glossinae) and horse-flies (Tabanidae) |

Same assay, conditions: pests repelled, table of further repellents; cited from earlier work

| Compound | Effectiveness (literature and manufacturer details) |
| --- | --- |
| CCCCCCCC(=O)N(CC)CC [N,N-Diethyl caprylamide] | cockroaches, mosquitoes, house files, horse-flies, ants, arachnids |
| CCCCC(CC)CN1C(=O)C2C3C=CC(C3)C2C1=O (stereo not drawn) [N-Octylbicycloheptenedicarboximide] | synergist^2 |
| O=CC12CC=CCC1C1CC=CCC1O2 (stereo not drawn) [2,3;4,5-bis(2-Butylene)tetrahydro-2-furaldehyde] | cockroaches and biting insects^1 |
| COC(=O)C1C2C=CC(C2)C1C(=O)OC (stereo not drawn) [Dimethyl carbate] | mosquitoes, in particular of the Aedes species^1 |
| CCCCOCCOCCOCc1cc2c(cc1CCC)OCO2 [Piperonyl butoxide] | synergist^2 |
| CCCC(O)C(CC)CO (stereo not drawn) [2-Ethylhexane-1,3-diol] | mosquitoes, horse-flies, flies, fleas, mites^1 |

— patent US20070079447A1, “Insect repellent textile” (Beiersdorf AG, priority 2003, published 2007)
